Results from patent US11466013B2 (Betta Pharmaceuticals Co., LTD, priority 2018, dated 2022).

What was measured:
COLO205 cells = experiment: Cell proliferation assay (COLO205), Cell-titer Glo; type: cell-based
Procedure: COLO205 cells were spread into a 96-well plate at 135 μL/well at 2000 cells. After incubating overnight, compound solutions of gradient concentration was prepared, and added 15 μL of DMSO solution of the test compound of each concentration to the cells of each well. The final concentration of the compound was 30000, 10000, 3333.3, 1111.1, 370.4, 123.5, 41.2, 13.7, 4.6, 0 nM (the final concentration of DMSO was 0.5%). 5% CO2 was incubated for 120 h at 37° C. 50 μL of Cell-titer Glo working solution was added to each well, shaked and mixed, and incubated at room temperature for 10 minutes. The multi-functional microplate reader read the luminescence value, and converted the luminescence value reading into inhibition percentage. Inhibition percentage=(maximum value−reading)/(maximum value−minimum value)*100.
The “maximum value” was the DMSO control, the “minimum value” indicates the cell-free control group.
(§1) Graphpad Prism software was used to perform curve fitting and obtain IC50 value.

ERK2 = ERK2 (Homo sapiens, UniProt P28482); experiment: Kinase assay (Caliper, FAM-labeled peptide), ERK2; type: biochemical
Procedure: (§2) The compound was diluted to the desired concentration with DMSO, transferred 100 μL to a 96-well plate, and performed a gradient dilution 10 μL of compound from each well was taken and mixed with 90 μL of kinase buffer, and then transferred 5 μL from each well to a 384-well plate. Kinase and FAM-labeled peptide and ATP were added to 1× kinase alkaline buffer to obtain 2.5× enzyme solution and 2.5× peptide solution, 10 μL of 2.5× enzyme solution was added to the 384-well assay plate. After incubating for 10 minutes at room temperature, 10 μL of 2.5× peptide solution was added to the 384-well plate. After reacting for a specific time at […], 25 μL of termination buffer was added to stop reaction. After reading the collected data on Caliper, the data was converted to inhibition percentage. Inhibition percentage=(maximum value−conversion value)/(maximum value−minimum value)*100.
(§3) The “maximum” is the DMSO control, the “minimum” indicates the low control.
as §1

ERK1 = ERK1 (Homo sapiens, UniProt P27361); experiment: Kinase assay (Caliper, FAM-labeled peptide), ERK1; type: biochemical
Procedure: as §2, §3, §1

[1] = Homo sapiens, COLO 205, 120 h incubation

Chain of ERK2 (P28482 whole entry): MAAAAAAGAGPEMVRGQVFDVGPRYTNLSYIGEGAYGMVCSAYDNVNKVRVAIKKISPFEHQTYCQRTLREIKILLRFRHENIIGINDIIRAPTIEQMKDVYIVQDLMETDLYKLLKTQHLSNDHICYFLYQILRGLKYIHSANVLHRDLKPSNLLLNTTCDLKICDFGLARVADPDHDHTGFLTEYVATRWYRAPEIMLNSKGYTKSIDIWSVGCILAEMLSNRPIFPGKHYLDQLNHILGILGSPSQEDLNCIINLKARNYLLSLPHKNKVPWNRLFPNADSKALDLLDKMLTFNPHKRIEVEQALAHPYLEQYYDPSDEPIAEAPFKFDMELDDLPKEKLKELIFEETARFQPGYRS
Chain of ERK1 (P27361 whole entry): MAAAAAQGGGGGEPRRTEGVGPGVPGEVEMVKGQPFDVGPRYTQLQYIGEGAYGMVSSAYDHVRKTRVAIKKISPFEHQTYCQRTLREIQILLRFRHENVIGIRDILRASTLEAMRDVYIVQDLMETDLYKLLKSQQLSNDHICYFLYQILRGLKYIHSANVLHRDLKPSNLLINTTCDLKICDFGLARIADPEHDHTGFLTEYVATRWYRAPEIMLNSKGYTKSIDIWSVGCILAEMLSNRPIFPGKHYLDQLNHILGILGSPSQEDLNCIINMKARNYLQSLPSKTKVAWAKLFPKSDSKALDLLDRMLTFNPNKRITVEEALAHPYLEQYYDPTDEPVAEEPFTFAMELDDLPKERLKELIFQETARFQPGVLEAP

Row | SMILES | IC50 (COLO205 cells; [1]) | IC50 (ERK2) | IC50 (ERK1) | IC50 (COLO205 cells; 120 h incubation)
1 | CC(C)Nc1cc(-c2cnc(C(=O)NCc3cc(F)ccc3CO)s2)c(Cl)cn1 [Example 2, 5-(5-Chloro-2-(isopropylamino)pyridin-4-yl)-N-(5-fluoro-2-(hydroxymethyl)benzyl)thiazole-2-formamide] | 77.5 nM | 0.9 nM | 1 nM | –
2 | CC(C)Nc1cc(-c2cc3n(c2)CC2(COC2)CN(Cc2ccccc2CO)C3=O)c(Cl)cn1 [Example 6, 8′-(5-Chloro-2-(isopropylamino)pyridin-4-yl)-2′-(2-(hydroxymethyl)benzyl)-2′,3-dihydro-1′H,5′H-spiro[oxetane-3,4′-pyrrolo[1,2-a][1,4]diazepine]-1′-one] | 9 nM | 0.5 nM | 0.8 nM | –
3 | CC(C)Nc1cc(-c2cc3n(n2)CC(CO)(CCl)CN(Cc2ccccc2CO)C3=O)c(Cl)cn1 (stereo not drawn) [Example 8, 2-(5-Chloro-2-(isopropylamino)pyridin-4-yl)-7-(chloromethyl)-7-(hydroxymethyl)-5-(2-(hydroxymethyl)benzyl)-5,6,7,8-tetrahydro-4H-pyrazolo[1,5-a][1,4]diazepine-4-one] | 36.1 nM | 1.4 nM | 1.3 nM | –
4 | CC(C)Nc1cc(-c2cc3n(c2)CC2(COC2)CN(Cc2cc(F)ccc2CO)C3=O)c(Cl)cn1 [Example 10, 8′-(5-chloro-2-(isopropylamino)pyridin-4-yl)-2′-(5-fluoro-2-(hydroxymethyl)benzyl)-2′,3′-dihydro-1′h,5′h-spiro[oxacyclobutane-3,4′-pyrrolo[1,2-a][1,4]diazepine]-1′-one] | 16.7 nM | 0.87 nM | 0.89 nM | –
5 | CC(C)Nc1cc(-c2cc3n(c2)CC2(COC2)CN(Cc2ccc(F)cc2CO)C3=O)c(Cl)cn1 [Example 13] | 50.8 nM | 0.89 nM | 0.74 nM | –
6 | CC(C)Nc1cc(-c2cc3n(c2)CCCN(Cc2ccccc2CO)C3=O)c(Cl)cn1 [Example 16, 8-(5-chloro-2-(isopropylamino)pyridin-4-yl)-2-(2-(hydroxylmethyl)benzyl)-2,3,4,5-tetrahydro-1h-pyrrolo [1,2-a][1,4]diazepine-1-one] | 56 nM | 0.6 nM | 0.9 nM | –
7 | CC(C)Nc1cc(-c2cc3n(c2)CC2(COC2)CN(Cc2cc(F)c(F)cc2CO)C3=O)c(Cl)cn1 [Example 17] | 25 nM | 0.4 nM | 0.47 nM | –
8 | COC[C@H]1Cn2cc(-c3cc(Nc4c(F)cnn4C)ncc3Cl)cc2C(=O)N1Cc1cc(F)ccc1CO [Example 51, (R)-7-(5-chloro-2-((4-fluoro-1-methyl-1H-pyrazol-5-yl)amino)pyridin-4-yl)-2-(5-fluoro-2-(hydroxymethyl)benzyl)-3-(methoxymethyl)-3,4-dihydropyrrolo[1,2-a]pyrazine-1(2H)-ketone] | 24.4 nM | – | – | –
9 | COCOC[C@H]1Cn2cc(-c3cc(Nc4ccnn4C)ncc3Cl)cc2C(=O)N1Cc1cc(F)ccc1CO [Example 53, (R)-7-(5-chloro-2-((1-methyl-1H-pyrazol-5-yl)amino)pyridin-4-yl)-2-(5-fluoro-2-(hydroxymethyl)benzyl)-3-((methoxymethoxy)methyl)-3,4-dihydropyrrolo[1,2-a]pyrazine-1(2H)-ketone] | 3.9 nM | – | – | –
10 | COC[C@H]1Cn2cc(-c3cc(Nc4cnn(C)c4)ncc3Cl)cc2C(=O)N1Cc1cc(F)ccc1CO [Example 88, (R)-7-(5-chloro-2-((1-methyl-1h-pyrazole-4-yl)amino)pyridine-4-yl)-2-(5-fluoro-2-(hydroxymethyl)benzyl)-3-(methoxymethyl)-3,4-dihydropyrrolo[1,2-a] pyrazine-1(2H)-one] | 28.8 nM | 1 nM | – | –
11 | COC[C@H]1Cn2cc(-c3cc(Nc4cn(C)nc4C)ncc3Cl)cc2C(=O)N1Cc1cc(F)ccc1CO [Example 89, (R)-7-(5-chloro-2-((1,3-dimethyl-1h-pyrazole-4-yl)amino)pyridine-4-yl)-2-(5-fluoro-2-(hydroxymethyl)benzyl)-3-(methoxymethyl)-3,4-dihydropyrrolo[1,2-a] pyrazin-1(2H)-one] | 12 nM | 1.1 nM | – | –
12 | COC[C@H]1Cn2cc(-c3cc(Nc4cc(C)nn4C)ncc3Cl)cc2C(=O)N1Cc1cc(F)ccc1CO [Example 96, (R)-7-(5-chloro-2-((1,3-dimethyl-1h-pyrazole-5-yl)amino)pyridine-4-yl)-2-(5-fluoro-2-(hydroxymethyl)benzyl)-3-(methoxymethyl)-3,4-dihydropyrrolo[1,2-a] pyrazine-1(2H)-one] | 11 nM | 1.8 nM | – | –
13 | Cc1cnc(Nc2cccc3c2OCCO3)nc1-c1cc2n(c1)CCN(Cc1cc(F)ccc1CO)C2=O [Example 135, 7-(2-((2,3-dihydrobenzo[b][1,4]dioxane-5-yl)amino)-5-methylpyrimidin-4-yl)-2-(5-fluoro-2-(hydroxymethyl)benzyl)-3,4-dihydropyrrolo[1,2-a] pyrazine-1(2H)-one] | – | 0.7 nM | 1.6 nM | –
14 | Cc1cnc(Nc2cccc(C)c2C)nc1-c1cc2n(c1)CCN(Cc1cc(F)ccc1CO)C2=O [Example 136, 7-(2-((2,3-dimethylphenyl)amino)-5-methylpyrimidin-4-yl)-2-(5-fluoro-2-(hydroxymethyl)benzyl)-3,4-dihydropyrrolo[1,2-a] pyrazine-1(2H)-one] | – | 0.4 nM | 0.9 nM | –
15 | Cc1cnc(Nc2ccccc2)nc1-c1cc2n(c1)CCN(Cc1cc(F)ccc1CO)C2=O [Example 137, 2-(5-fluoro-2-(hydroxymethyl)benzyl)-7-(5-methyl-2-(phenylamino)pyrimidin-4-yl)-3,4-dihydropyrrolo[1,2-a] pyrazine-1(2H)-one] | – | 0.6 nM | 2.7 nM | –
16 | Cc1cnc(Nc2cccc3cnn(C)c23)nc1-c1cc2n(c1)CCN(Cc1cc(F)ccc1CO)C2=O [Example 140, 2-(5-fluoro-2-(hydroxymethyl)benzyl)-7-(5-methyl-2-((1-methyl-1h-indazole-7-yl)amino)pyrimidin-4-yl)-3,4-dihydropylrolo[1,2-a] pyrazine-1(2H)-one] | – | 1.1 nM | 1.3 nM | –
17 | Cc1cnc(Nc2cccc3c2cnn3C)nc1-c1cc2n(c1)CCN(Cc1cc(F)ccc1CO)C2=O [Example 141, 2-(5-fluoro-2-(hydroxymethyl)benzyl)-7-(5-methyl-2-((1-methyl-1h-indazole-4-yl)amino)pyrimidin-4-yl)-3,4-dihydropyrrolo[1,2-a] pyrazine-1(2H)-one] | – | 0.87 nM | 0.93 nM | –
18 | Cc1cnc(Nc2ccc(OC(C)C)nc2)nc1-c1cc2n(c1)CCN(Cc1cc(F)ccc1CO)C2=O [Example 159, 2-(5-fluoro-2-(hydroxymethyl)benzyl)-7-(2-((6-isopropoxypyridin-3-yl)amino) 5-methylpyrimidin-4-yl)-3,4-dihydropyrrolo[1,2-a] pyrazine-1(2H)-one] | – | 1.7 nM | 1.9 nM | –
19 | Cn1nccc1Nc1ncc(C(F)(F)F)c(-c2cc3n(c2)CCN(Cc2cc(F)ccc2CO)C3=O)n1 [Example 164, 2-(5-fluoro-2-(hydroxymethyl)benzyl)-7-(2-((1-methyl-1h-pyrazole-5-yl)amino)-5-(trifluoromethyl)pyrimidin-4-yl)-3,4-dihydropyrrolo[1,2-a] pyrazine-1(2H)-one] | 28.9 nM | 0.66 nM | – | –
20 | CC(C)Nc1cc(-c2cc3n(c2)CCN(C(CO)c2cccc(C(F)(F)F)c2)C3=O)c(Cl)cn1 (stereo not drawn) [Example D1, reference compound] | – | – | – | 7330 nM
21 | CC(C)Nc1cc(-c2cnn(C(=O)N[C@H](CO)c3cccc(Cl)c3)c2)c(Cl)cn1 [Example D2, (S)-4-(5-chloro-2-(isopropylamino)pyridin-4-yl)-N′-(1-(3-chlorophenyl)-2-hydroxyethyl)-1H-pyrazole-1-carboxamide, reference compound] | – | – | – | 12200 nM
22 | Cc1cnc(Nc2ccnn2C)nc1-c1c[nH]c(C(=O)NCc2cccc(F)c2)c1 [Example D4, N-(3-fluorobenzyl)-4-(5-methyl-2-((1-methyl-1h-pyrazole-5-yl)amino)pyrimidin-4-yl)-1h-pyrrole-2-formamide, reference compound] | 252 nM | – | – | –
23 | Cc1cnc(Nc2ccnn2C)nc1-c1cc2n(c1)CCN(Cc1cccc(F)c1)C2=O [Example D5, 2-(3-fluorobenzyl)-7-(5-methyl-2-((1-methyl-1h-pyrazole-5-yl)amino)pyrimidin-4-yl)-3,4-dihydropyrrolo[1,2-a] pyrazine-1(2H)-one, reference compound] | 93.7 nM | – | – | –
24 | CC(C)Nc1cc(-c2cc3n(c2)CCN(Cc2cccc(F)c2)C3=O)c(Cl)cn1 [Example D8, 7-(5-chloro-2-(isopropylamino)pyridin-4-yl)-2-(3-fluorobenzyl)-3,4-dihydropyrrolo[1,2-a] pyrazine-1(2H)-one, reference compound] | 1630 nM | – | – | –
